Key:
human FPR1 = human FPR1 (Homo sapiens (Human), UniProt P21462); test: FPR1 cyclic adenosine monophosphate (cAMP) assay; format: cell-based; settings: CHO cells overexpressing human FPR1; forskolin 10 μM, IBMX 200 μM; inhibition of cAMP production, HTRF; read-out: hFPR1 cAMP EC50
Description: (§1) N-formyl peptide receptors (FPRs) are a family of chemo attractant receptors that facilitate leukocyte response during inflammation. FPRs belong to the seven-transmembrane G protein-coupled receptor superfamily and are linked to inhibitory G-proteins (Gi). Three family members (FPR1, FPR2 and FPR3) have been identified in humans and are predominantly found in myeloid cells with varied distribution and have also been reported in multiple organs and tissues. After agonist binding, the FPRs activate a multitude of physiological pathways, such as intra cellular signaling transduction, Ca^21 mobilization and transcription. The family interacts with a diverse set of ligands that includes proteins, polypeptides and fatty acid metabolites which activate both pro-inflammatory and pro-resolution downstream responses. FPR2 and FPR1 Cyclic Adenosine Monophosphate (cAMP) Assays were used to measure the activity of the compounds in this patent.
(§2) FPR2 and FPR1 Cyclic Adenosine Monophosphate (cAMP) Assays. A mixture of forskolin (5 μM final for FPR2 or 10 μM final for FPR1) and IBMX (200 μM final) were added to 384-well Proxiplates (Perkin-Elmer) pre-dotted with test compounds in DMSO (1% final) at final concentrations in the range of 0.020 nM to 100 μM. Chinese Hamster Ovary cells (CHO) overexpressing human FPR1 or human FPR2 receptors were cultured in F-12 (Ham's) medium supplemented with 10% qualified FBS, 250 μg/ml zeocin and 300 μg/ml hygromycin (Life Technologies). Reactions were initiated by adding 2,000 human FPR2 cells per well or 4,000 human FPR1 cells per well in Dulbecco's PBS (with calcium and magnesium) (Life Technologies) supplemented with 0.1% BSA (Perkin-Elmer). The reaction mixtures were incubated for 30 min at room temperature. The level of intracellular cAMP was determined using the HTRF HiRange cAMP assay reagent kit (Cisbio) according to manufacturer's instruction. Solutions of cryptate conjugated anti-cAMP and d2 flurorophore-labelled cAMP were made in a supplied lysis buffer separately. Upon completion of the reaction, the cells were lysed with equal volume of the d2-cAMP solution and anti-cAMP solution. After a 1-h room temperature incubation, time-resolved fluorescence intensity was measured using the Envision (Perkin-Elmer) at 400 nm excitation and dual emission at 590 nm and 665 nm. A calibration curve was constructed with an external cAMP standard at concentrations ranging from 1 μM to 0.1 μM by plotting the fluorescent intensity ratio from 665 nm emission to the intensity from the 590 nm emission against cAMP concentrations. The potency and activity of a compound to inhibit cAMP production was then determined by fitting to a 4-parametric logistic equation from a plot of cAMP level versus compound concentrations.

human FPR2 = human FPR2 (Homo sapiens (Human), UniProt P25090); test: FPR2 cyclic adenosine monophosphate (cAMP) assay; format: cell-based; settings: CHO cells overexpressing human FPR2; forskolin 5 μM, IBMX 200 μM; inhibition of cAMP production, HTRF; read-out: hFPR2 cAMP2 EC50
Description: as §1, §2

Sequence of human FPR1 (P21462 whole entry): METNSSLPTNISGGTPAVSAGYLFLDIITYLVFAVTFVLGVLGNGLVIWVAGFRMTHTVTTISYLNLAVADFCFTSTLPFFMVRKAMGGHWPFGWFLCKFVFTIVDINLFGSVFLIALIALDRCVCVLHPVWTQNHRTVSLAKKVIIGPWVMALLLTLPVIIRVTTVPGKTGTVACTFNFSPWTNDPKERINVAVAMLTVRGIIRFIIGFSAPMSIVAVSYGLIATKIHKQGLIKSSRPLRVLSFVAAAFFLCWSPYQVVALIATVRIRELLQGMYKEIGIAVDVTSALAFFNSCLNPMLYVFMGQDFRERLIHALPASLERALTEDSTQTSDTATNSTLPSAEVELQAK
Sequence of human FPR2 (P25090 whole entry): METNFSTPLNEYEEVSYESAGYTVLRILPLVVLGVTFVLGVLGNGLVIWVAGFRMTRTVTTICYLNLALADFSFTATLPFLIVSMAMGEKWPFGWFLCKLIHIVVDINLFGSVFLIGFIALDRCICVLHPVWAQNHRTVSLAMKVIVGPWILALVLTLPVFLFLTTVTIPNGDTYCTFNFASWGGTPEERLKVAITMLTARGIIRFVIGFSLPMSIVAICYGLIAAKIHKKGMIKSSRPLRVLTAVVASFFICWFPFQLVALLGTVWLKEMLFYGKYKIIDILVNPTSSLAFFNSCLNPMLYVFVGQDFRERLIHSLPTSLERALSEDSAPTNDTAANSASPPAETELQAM

| SMILES | EC50 (human FPR1) | EC50 (human FPR2) |
| --- | --- | --- |
| COc1cc(F)c([C@@H]2CN(c3ncccc3C(F)(F)F)C(=O)[C@H]2NC(=O)NC2CCc3cc(OC)ccc3C2)c(F)c1 (some centres unmarked) [Example 64] | 54 nM | 53 nM |
| COc1cc(F)c([C@@H]2CN(c3cccn(CCO)c3=O)C(=O)[C@H]2NC(=O)N[C@H]2CC[C@H](C(F)F)CC2)c(F)c1 [Example 65] | 5000 nM | 55 nM |
| COc1cc(F)c([C@@H]2CN(c3ncccc3C(F)(F)F)C(=O)[C@H]2NC(=O)NC2CCC3(CC2)CC3)c(F)c1 [Example 67] | > 10000 nM | 97 nM |
| COc1cc(F)c([C@@H]2CN(c3nccc(NC4CCOCC4)c3C(F)(F)F)C(=O)[C@H]2NC(=O)N[C@H]2CC[C@H](C(F)F)CC2)c(F)c1 [Example 68] | 4800 nM | 27 nM |
| COCCNc1ccnc(N2C[C@@H](c3c(F)cc(OC)cc3F)[C@H](NC(=O)N[C@H]3CC[C@H](C(F)F)CC3)C2=O)c1C(F)(F)F [Example 69] | 1800 nM | 5.2 nM |
| COCCn1cccc(N2C[C@@H](c3c(F)cc(OC)cc3F)[C@H](NC(=O)N[C@H]3CC[C@H](C(F)F)CC3)C2=O)c1=O [Example 70] | 1200 nM | 33 nM |
| COc1cc(F)c([C@H]2[C@H](NC(=O)N[C@H]3CC[C@H](C(F)F)CC3)C(=O)N(c3cccn(CCO)c3=O)[C@H]2C)c(F)c1 [Example 71] | 1100 nM | 54 nM |
| CNC(=O)CNc1ccnc(N2C[C@@H](c3c(F)cc(OC)cc3F)[C@H](NC(=O)N[C@H]3CC[C@H](C(F)F)CC3)C2=O)c1C(F)(F)F [Example 72] | > 1000 nM | 25 nM |
| COc1cc(F)c([C@@H]2CN(c3cccn(CC(O)C(F)(F)F)c3=O)C(=O)[C@H]2NC(=O)NC2CCc3cc(OC)ccc3C2)c(F)c1 (some centres unmarked) [Example 80] | 1 nM | 11 nM |
| COCC(CO)n1cccc(N2C[C@@H](c3c(F)cc(OC)cc3F)[C@H](NC(=O)NC3CCc4cc(OC)ccc4C3)C2=O)c1=O (some centres unmarked) [Example 81] | 1.5 nM | 5.9 nM |
| COCC(CO)n1cccc(N2C[C@@H](c3c(F)cc(OC)cc3F)[C@H](NC(=O)NC3CCc4cc(OC)ccc4C3)C2=O)c1=O (some centres unmarked) [Example 82] | 0.8 nM | 9.9 nM |
| COCCn1nccc(N2C[C@@H](c3c(F)cc(OC)cc3F)[C@H](NC(=O)NC3CCc4cc(OC)ccc4C3)C2=O)c1=O (some centres unmarked) [Example 85] | 7.6 nM | 4.4 nM |
| COc1cc(F)c([C@@H]2CN(c3nccc(N4CCN(S(C)(=O)=O)CC4)c3C(F)(F)F)C(=O)[C@H]2NC(=O)N[C@H]2CC[C@H](C(F)F)CC2)c(F)c1 [Example 88] | > 10000 nM | 9.1 nM |
| COc1cc(F)c([C@@H]2CN(c3nccc(NCC4CCCO4)c3C(F)(F)F)C(=O)[C@H]2NC(=O)N[C@H]2CC[C@H](C(F)F)CC2)c(F)c1 (some centres unmarked) [Example 93] | 1700 nM | 14 nM |
| COc1cc(F)c([C@@H]2CN(c3nccc(NCCS(C)(=O)=O)c3C(F)(F)F)C(=O)[C@H]2NC(=O)N[C@H]2CC[C@H](C(F)F)CC2)c(F)c1 [Example 98] | > 5000 nM | 7.2 nM |
| COc1cc(F)c([C@@H]2CN(c3nccc(N4CC(C)(O)C4)c3C(F)(F)F)C(=O)[C@H]2NC(=O)N[C@H]2CC[C@H](C(F)F)CC2)c(F)c1 [Example 101] | > 10000 nM | 1.6 nM |
| COc1cc(F)c([C@@H]2CN(c3nccc(NCC(C)(C)O)c3C(F)(F)F)C(=O)[C@H]2NC(=O)N[C@H]2CC[C@H](C(F)F)CC2)c(F)c1 [Example 104] | 5000 nM | 39 nM |
| COCCn1cccc(N2C(=O)[C@@H](NC(=O)N[C@H]3CC[C@H](C(F)F)CC3)[C@H](c3c(F)cc(OC)cc3F)[C@@H]2C)c1=O [Example 105] | 1200 nM | 17 nM |
| COc1cc(F)c([C@@H]2CN(c3nccc(N4CCOCC4)c3C(F)(F)F)C(=O)[C@H]2NC(=O)N[C@H]2CC[C@H](C(F)F)CC2)c(F)c1 [Example 108] | 3500 nM | 670 nM |
